According to PMC4398456, “Evidence for a Novel Mechanism of Antimicrobial Action of a Cyclic R-,W-Rich Hexapeptide” (PLoS ONE, 2015):
≈ marks a conversion by molar mass, not a printed value. Non-standard residues stand in square brackets, D forms with d. Residues, ends and D or L forms follow the SMILES beside them. *: point of attachment. NBD = O=[N+]([O-])c1ccc(*)c2nonc12; Dap = NC[C@H](N)C(=O)O

Columns and labels:
B. subtilis L-170 = experiment: HPLC uptake study with o-nitroaniline modification; type: cell-based; details: 10^9 cells/ml DPBSG, 24 μM peptide, 30 min, 37°C; o-nitroaniline treatment; fluorescence HPLC; three independent experiments in triplicates
From the text: (§1) As the cytoplasmic membrane of bacteria has been identified as the target of cWFW, cell wall-deficient L-form strains derived from E. coli (LWF+) and B. subtilis (L-170) were used to quantify peptide uptake into the cytoplasm. The approach, originally developed for the investigation of peptide uptake into eukaryotic cells, is based on chemical modification of the amino group of lysine side chains with o-nitroaniline and fluorescence-based HPLC detection of non-modified and modified sequences. Fluorescence labelling was necessary for quantification of cyclic hexapeptide uptake.
(§2) Cells were cultivated to an OD550 ± 0.8 in conical flasks as described above. After harvesting and centrifugation at 2000 × g (Sigma 3K12, Germany) for 12 min and removal of culture medium, cells were washed twice with DPBSG (DPBS containing 1g/l glucose). […] Protein content was determined with BCA Protein Assay Kit (Thermo Scientific, Germany) according to manufacturer’s instructions. […]
(§3) HPLC analysis was performed as described before using a Jasco LC-2000 Plus (U.S.) with a ProntoSil 300-5-C18-H column (250 × 4.6 mm, 5 μm) (Bischoff Chromatography, Germany) and a precolumn with PolyenCap A300, 10 μm. Peptide amounts were quantified via calibration curves for carboxyfluorescein (ex 445 nm, em 520 nm, gain 1000) and NBD fluorescence (ex 470 nm, em 520 nm, gain 1000), respectively.

E. coli L-WF+ = experiment: HPLC uptake study with o-nitroaniline modification; type: cell-based; details: 10^9 cells/ml DPBSG, 24 μM peptide, 30 min, 37°C; o-nitroaniline treatment; fluorescence HPLC; three independent experiments in triplicates
From the text: as §1, §2, §3

E. coli DH5α = details: microdilution; reported before; cited from earlier work
B. subtilis DSM 347 = details: microdilution; reported before; cited from earlier work
B. subtilis = experiment: Peptide localisation by fluorescence microscopy (CLSM); type: cell-based; details: 12 μM peptide, 30 minutes, LB-agarose pad; at least three independent experiments
E. coli = experiment: as above; type: cell-based; details: 12 μM peptide, 30 minutes, LB-agarose pad; at least three independent experiments
Description: Cells from an overnight culture were diluted 1:100 in fresh medium and grown to mid-log phase. LB-agarose pads were prepared by adding 1.5% agarose to LB medium and heated until the agarose was completely dissolved. In the case of translocation experiments the solution was slightly cooled down before peptides were added at a final concentration of 12 μM. 100 μl LB-agarose was applied to a cover slip and stored at 8°C in the dark for ~30 minutes. The hardened LB-pad was placed on top of 10 μl of bacterial culture (OD600 0.4) and live cell imaging was performed for up to 100 minutes in a heat controlled chamber to avoid desiccation.
Specific staining of CL with NAO has been shown before and is neither influenced by fixation nor depolarisation of the membrane. The emission shift from green to red fluorescence (513 nm to 640 nm) was reported to be exclusive for binding to CL and is caused by narrow stacking of dye molecules. Images were captured using a Zeiss Axiovert M200 inverted fluorescence microscope and an LSM 510 ConfoCor2 (Germany) with plan-apochromat 63, 100×/1.4 objective, respectively, and processed with ImageJ.

Row | SMILES | fraction of unmodified peptide, inaccessible for chemical modification, of the total cell-bound peptides (B. subtilis L-170) [%] | fraction of unmodified peptide, inaccessible for chemical modification, of the total cell-bound peptides (E. coli L-WF+) | MIC E. coli DH5α (E. coli DH5α) [µM] | MIC B. subtilis DSM 347 (B. subtilis DSM 347) [µM] | peptide localisation in live cells (B. subtilis) | peptide localisation in live cells (E. coli)
1 | N=C(N)NCCC[C@@H]1NC(=O)[C@H](CCCCN)NC(=O)[C@H](Cc2c[nH]c3ccccc23)NC(=O)[C@H](CNc2ccc([N+](=O)[O-])c3nonc23)NC(=O)[C@H](Cc2c[nH]c3ccccc23)NC(=O)[C@H](CCCCN)NC1=O [cR2[NBD]] (cyclo(KRKW[Dap](NBD)W)) | ~30 | about 20% | 50 (≈ 51.7 µg/mL) | 12 (≈ 12.4 µg/mL) |  | 
2 | N=C(N)NCCC[C@@H]1NC(=O)[C@H](CCCNC(=N)N)NC(=O)[C@H](Cc2c[nH]c3ccccc23)NC(=O)[C@H](CNc2ccc([N+](=O)[O-])c3nonc23)NC(=O)[C@H](Cc2c[nH]c3ccccc23)NC(=O)[C@H](CCCNC(=N)N)NC1=O [cW[NBD]W] (cyclo(RRRW[Dap](NBD)W)) |  |  | 50 (≈ 54.5 µg/mL) | 25 (≈ 27.3 µg/mL) | not detectable within the cytoplasm | not detectable within the cytoplasm
